Source: patent publication US20030109418A1, “Methods for identifying compounds for inhibition of neoplastic lesions, and pharmaceutical compositions containing such compounds” (priority 1999, published 2003)
Structures can show the parent of a compound that is named as a salt.

Key:
[1] = system: premalignant lesions in mouse mammary gland organ culture; assay: Mammary gland organ culture model; assay type: cell-based; for mammary gland organ culture: key: −: Not active; +: Slightly active; ++: Moderately active; +++: Strongly active; ++++: Highly active
[2] = system: Bronchial Epithelial Cells; assay: Growth inhibition, SRB assay, bronchial epithelial cells; assay type: cell-based; details: Epithelial cell
From the text: A compound's ability to inhibit tumor cell growth can be measured using the HT-29 human colon carcinoma cell line obtained from ATCC. HT-29 cells have previously been characterized as a relevant colon tumor cell culture model (Fogh, J., and Trempe, G. In: Human Tumor Cells in Vitro, J. Fogh (eds.), Plenum Press, New York, pp. 115-159, 1975). HT-29 cells are maintained in RPMI media supplemented with 5% fetal bovine calf serum (Gemini Bioproducts, Inc., Carlsbad, Calif.) and 2 mm glutamine, and 1% antibiotic-antimycotic in a humidified atmosphere of 95% air and 5% CO2 at 37° C. Briefly, HT-29 cells are plated at a density of 500 cells/well in 96 well microtiter plates and incubated for 24 hours at 37° C. prior to the addition of compound. […] After six days in culture, the cells are fixed by the addition of cold trichloroacetic acid to a final concentration of 10% and protein levels are measured using the sulforhodamine B (SRB) colorimetric protein stain assay as previously described by Skehan, P., Storeng, R., Scudiero, D., Monks, A., McMahon, J., Vistica, D., Warren, J. T., Bokesch, H., Kenney, S., and Boyd, M. R., “New Colorimetric Assay For Anticancer-Drug Screening,” J. Natl. Cancer Inst. […]
To show the effectiveness of this screening method on various forms of neoplasia, compounds were tested on numerous cell lines. […] The IC50 values were determined by the SRB assay. […]

[3] = system: MDA-MB-435; assay: Growth inhibition, neutral red assay, MDA-MB-435; assay type: cell-based, human; details: free base, five days
Protocol: (§1) Compound I's activity is not confined to activity against colon cancer cell lines or animal models of colon cancer. It has a broad range of anti-neoplastic effects in various neoplastic cell lines. Various types of human cancer cell lines were propagated under sterile conditions in RPMI 1640 medium with 10% fetal bovine serum, 2 mM L-glutamine and sodium bicarbonate. To determine growth inhibitory effects of Compound I, cells were seeded in 96-well plates at a density of 1000 cells per well. Twenty-four hours after plating, the cells were dosed with various concentrations of the free base of Compound I solubilized in DMSO (final concentration 0.1%). The effect of the drug on tumor cell growth was determined using the neutral red cytotoxicity assay following five days of continuous treatment. Neutral red is a dye that is selectively taken up by viable cells by an ATP-dependent transport mechanism.

[4] = system: NCI-H322M; assay: Growth inhibition, neutral red assay, NCI-H322M; assay type: cell-based, human; details: free base, five days
Protocol: as §1

[5] = system: LNCaP prostate tumor cell line; assay: Histone-associated DNA fragmentation in prostate tumor cells; assay type: cell-based; details: 50 μM free base, after 24 hours, sustained up to 4 days
Protocol: The androgen-sensitive prostate tumor cell line, LNCaP (from ATCC (Rockville, Md.)) was propogated under standard conditions using […] medium containing 5% fetal calve serum and 2 mM glutamine. Primary prostate epithelial cell cultures (PrEC) derived from normal prostate (from Clonetics Inc. (San Diego, Calif.)) were grown under the same conditions as the tumor cell line except a serum-free medium optimized for the growth of such cultures was used (Clonetics Inc). For the experiments, LNCaP or PrEC cells were seeded in 96 well plates at a density of 10,000 cells per well. After 24 hours, the cells were treated with either vehicle (0.1% DMSO) or 50 μM Compound I (free base) solubilized in DMSO. After various drug treatment times (4, 24, 48, 72, or 99 hours) the cells were lysed and processed for measurement of histone-associated DNA as an indicator of apoptotic cell death (see, Piazza et al., Cancer Research 57: 2452-2459, 1997).
This is in marked contrast to conventional chemotherapeutics that induce apoptosis or necrosis in rapidly growing normal and neoplastic cells alike.

[6] = dog, in vivo

SMILES | inhibition of the formation of premalignant lesions ([1]; mammary gland organ culture) | Mammary Gland Organ Culture ([1]; qualitative activity profile) | IC50 [2] [µM] | GI50 ([3]; Homo sapiens, MDA-MB-435, 120 h) [µM] | GI90 μM, MDA-MB-435 [3] [µM] | GI50 ([4]; Homo sapiens, NCI-H322M, 120 h) [µM] | GI90 μM, NCI-H322M [4] [µM] | histone-associated fragmented DNA in LNCaP [5] | signs of toxicity, single dose in capsules ([6]; 1000 mg/kg) | drug-related effects, single and seven consecutive doses ([6]; 1000 mg/kg/day)
CC1=C(CC(=O)O)c2cc(F)ccc2/C1=C\c1ccc(S(C)(=O)=O)cc1 [Exisulind, 5-fluoro-2-methyl-1-(p-methylsulfonylbenzylidene)-3-indenylacetic acid] | effectively inhibit the formation of premalignant lesions | +++ | 90 |  |  |  |  |  |  | 
CC1=C(CC(=O)NCc2ccccc2)c2cc(F)ccc2/C1=C\c1ccncc1 [Compound I, (Z)-5-fluoro-2-methyl-(4-pyridylidene)-3-(N-benzyl)indenylacetamide hydrochloride] |  |  |  | 1.6 | 2.3 | 2.1 | 13.2 | significant increase in fragmented DNA | no signs of toxicity | At no time in either dosing phase were any obvious signs of drug-related effects observed
